{"source": "patent US20250155452A1", "about": "“NLRP3 Variants & Library Screen for NLRP3 Inhibitors with the Same” (BioAge Labs, Inc., priority 2023, published 2025)", "biological_target": "T1, MBP-ANLRP3-HIS (Homo sapiens, UniProt Q96P20, K142A)", "T1 construct": "made in house; host or cells: Sf21 (IPLB-Sf21-AE) insect cells", "assay": "ATPase activity, ADP-Glo Kinase Assay (Promega)", "assay_type": "biochemical", "conditions": "read-out: Km of ATP", "description": "Peptide mass fingerprinting confirmed the protein identity while intact mass analysis confirmed the overall integrity of the protein and indicated the loss of the amino-terminal methionine. The theoretical molecular weight and isoelectric point (pI) of MBP-NLRP3-HIS are 145.30 kDa and 6.2, respectively. […] MBP-ANLRP3-HIS protein functionality was assessed based on ATPase activity using an ADP-Glo Kinase Assay (Promega). […] This protein construct was shown via its ATPase activity to have acceptable stability up to 2 hours in conditions mimicking one round of selection in the DEL screen."}
{"smiles": "Nc1ncnc2c1ncn2[C@@H]1O[C@H](COP(=O)(O)OP(=O)(O)OP(=O)(O)O)[C@@H](O)[C@H]1O", "note": "[ATP]", "values": [{"measurement": "Km", "value": 3.08, "unit": "µM"}]}
